Data: ChEMBL document CHEMBL1152560, “Substituted 2-arylbenzothiazoles as kinase inhibitors: hit-to-lead optimization” (Bioorg Med Chem, 2009)

How the values were obtained:
[1] = target: Protein kinase C beta type (Homo sapiens) (UniProt P05771); assay: Residual activity of PKCbeta2 at 1 uM by microplate scintillation counting
[2] = target: 5'-AMP-activated protein kinase catalytic subunit alpha-1 (Homo sapiens) (UniProt Q13131); assay: Residual activity of AMPK-alpha1 fl at 10 uM by microplate scintillation counting
[3] = target: T1, Dual specificity protein kinase TTK (Homo sapiens) (UniProt P33981); assay: Residual activity of TTK at 0.1 uM by microplate scintillation counting
T1 sequence (whole entry): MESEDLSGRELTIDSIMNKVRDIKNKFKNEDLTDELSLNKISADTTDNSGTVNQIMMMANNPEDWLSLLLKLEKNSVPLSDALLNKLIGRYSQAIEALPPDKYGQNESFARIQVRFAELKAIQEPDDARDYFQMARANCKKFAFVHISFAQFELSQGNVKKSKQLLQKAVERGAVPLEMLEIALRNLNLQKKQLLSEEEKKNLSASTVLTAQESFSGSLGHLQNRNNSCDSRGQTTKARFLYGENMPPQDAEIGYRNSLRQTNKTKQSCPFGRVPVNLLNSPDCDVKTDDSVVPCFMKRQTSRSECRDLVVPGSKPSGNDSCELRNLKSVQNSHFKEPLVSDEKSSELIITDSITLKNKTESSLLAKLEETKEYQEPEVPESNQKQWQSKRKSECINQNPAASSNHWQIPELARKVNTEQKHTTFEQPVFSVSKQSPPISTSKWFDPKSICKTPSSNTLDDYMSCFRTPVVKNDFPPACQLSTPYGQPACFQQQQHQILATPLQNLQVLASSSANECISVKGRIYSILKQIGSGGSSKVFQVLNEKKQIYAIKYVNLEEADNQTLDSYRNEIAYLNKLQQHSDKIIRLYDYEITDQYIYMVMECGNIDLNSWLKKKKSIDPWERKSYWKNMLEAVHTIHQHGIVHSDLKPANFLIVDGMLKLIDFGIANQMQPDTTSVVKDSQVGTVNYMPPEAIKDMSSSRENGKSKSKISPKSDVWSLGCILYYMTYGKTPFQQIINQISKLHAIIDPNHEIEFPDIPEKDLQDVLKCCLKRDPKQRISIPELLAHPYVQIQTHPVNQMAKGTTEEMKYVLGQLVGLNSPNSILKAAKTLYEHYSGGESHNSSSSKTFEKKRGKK

[4] = target: Death-associated protein kinase 2 (Homo sapiens) (UniProt Q9UIK4); assay: Residual activity of DAPK2 at 1 uM by microplate scintillation counting
[5] = target: LIM domain kinase 1 (Homo sapiens) (UniProt P53667); assay: Residual activity of LIMK1 at 10 uM by microplate scintillation counting
[6] = target: T2, Inhibitor of nuclear factor kappa-B kinase subunit alpha (Homo sapiens) (UniProt O15111); assay: Residual activity of IKKalpha at 10 uM by microplate scintillation counting
T2 sequence (whole entry): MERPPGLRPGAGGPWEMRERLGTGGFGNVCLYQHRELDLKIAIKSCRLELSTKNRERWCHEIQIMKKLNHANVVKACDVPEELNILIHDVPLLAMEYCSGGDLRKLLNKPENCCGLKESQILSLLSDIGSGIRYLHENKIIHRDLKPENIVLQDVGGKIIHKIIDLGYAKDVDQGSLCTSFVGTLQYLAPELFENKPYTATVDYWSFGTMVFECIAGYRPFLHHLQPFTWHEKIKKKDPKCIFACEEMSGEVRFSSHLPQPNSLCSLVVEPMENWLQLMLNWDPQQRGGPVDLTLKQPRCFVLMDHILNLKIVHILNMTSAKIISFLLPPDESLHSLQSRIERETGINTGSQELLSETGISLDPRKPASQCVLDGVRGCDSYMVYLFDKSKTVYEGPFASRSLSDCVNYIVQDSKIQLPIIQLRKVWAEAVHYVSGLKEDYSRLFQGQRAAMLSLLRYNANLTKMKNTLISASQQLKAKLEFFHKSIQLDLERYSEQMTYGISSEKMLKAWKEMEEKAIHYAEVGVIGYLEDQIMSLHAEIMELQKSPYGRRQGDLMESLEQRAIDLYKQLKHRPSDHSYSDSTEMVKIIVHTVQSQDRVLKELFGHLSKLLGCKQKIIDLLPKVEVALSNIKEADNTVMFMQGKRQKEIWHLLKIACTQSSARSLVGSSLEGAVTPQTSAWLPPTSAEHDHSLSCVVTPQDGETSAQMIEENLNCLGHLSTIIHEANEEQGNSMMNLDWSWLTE

[7] = target: MAP/microtubule affinity-regulating kinase 3 (Homo sapiens) (UniProt P27448); assay: Residual activity of MARK3 at 1 uM by microplate scintillation counting
[8] = target: Serine/threonine-protein kinase PAK 3 (Homo sapiens) (UniProt O75914); assay: Residual activity of PAK3 at 1 uM by microplate scintillation counting
[9] = target: T3, Serine/threonine-protein kinase 3 (Homo sapiens) (UniProt Q13188); assay: Residual activity of MST2 at 10 uM by microplate scintillation counting
T3 sequence (whole entry): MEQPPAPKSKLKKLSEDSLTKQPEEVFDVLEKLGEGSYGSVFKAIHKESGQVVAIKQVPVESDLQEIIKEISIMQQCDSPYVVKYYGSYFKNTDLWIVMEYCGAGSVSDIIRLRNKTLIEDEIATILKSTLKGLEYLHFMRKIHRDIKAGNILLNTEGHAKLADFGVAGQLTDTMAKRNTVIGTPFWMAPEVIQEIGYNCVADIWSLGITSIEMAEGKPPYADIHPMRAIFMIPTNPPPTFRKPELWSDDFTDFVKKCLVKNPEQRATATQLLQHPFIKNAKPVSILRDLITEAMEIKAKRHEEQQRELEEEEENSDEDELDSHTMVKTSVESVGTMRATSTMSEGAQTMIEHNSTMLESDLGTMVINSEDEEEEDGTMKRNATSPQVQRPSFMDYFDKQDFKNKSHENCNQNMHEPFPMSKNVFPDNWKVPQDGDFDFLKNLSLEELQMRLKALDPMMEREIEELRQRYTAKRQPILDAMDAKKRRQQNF

[10] = target: Ribosomal protein S6 kinase alpha-5 (Homo sapiens) (UniProt O75582); assay: Residual activity of RPS6KA5 at 10 uM by microplate scintillation counting
[11] = target: CDC42BPA protein (Homo sapiens) (UniProt B9EGA7); assay: Residual activity of CDC42BPA at 0.1 uM by microplate scintillation counting
[12] = target: Casein kinase I isoform epsilon (Homo sapiens) (UniProt P49674); assay: Residual activity of CK1epsilon at 10 uM by microplate scintillation counting
[13] = target: Serine/threonine-protein kinase PLK3 (Homo sapiens) (UniProt Q9H4B4); assay: Residual activity of PLK3 at 10 uM by microplate scintillation counting
Serine/threonine-protein kinase PLK3 (Homo sapiens), sequence (Q9H4B4 whole entry, looked up): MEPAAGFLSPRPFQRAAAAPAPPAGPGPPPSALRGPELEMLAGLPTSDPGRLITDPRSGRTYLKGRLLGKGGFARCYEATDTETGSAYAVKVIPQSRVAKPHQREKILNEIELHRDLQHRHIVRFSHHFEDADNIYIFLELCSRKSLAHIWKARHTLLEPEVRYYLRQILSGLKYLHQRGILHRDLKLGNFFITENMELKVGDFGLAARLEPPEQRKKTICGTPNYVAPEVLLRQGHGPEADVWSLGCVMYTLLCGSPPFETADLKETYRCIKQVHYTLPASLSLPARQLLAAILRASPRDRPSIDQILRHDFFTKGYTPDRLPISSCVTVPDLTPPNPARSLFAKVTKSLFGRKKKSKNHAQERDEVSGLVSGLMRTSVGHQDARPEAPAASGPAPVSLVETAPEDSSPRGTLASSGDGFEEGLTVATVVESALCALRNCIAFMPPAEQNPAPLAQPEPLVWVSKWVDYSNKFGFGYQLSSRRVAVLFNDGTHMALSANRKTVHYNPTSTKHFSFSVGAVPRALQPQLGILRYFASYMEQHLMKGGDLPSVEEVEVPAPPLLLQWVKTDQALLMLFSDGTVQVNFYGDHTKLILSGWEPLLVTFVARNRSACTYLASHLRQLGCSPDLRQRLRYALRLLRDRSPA

CDC42BPA protein (Homo sapiens), sequence (B9EGA7 as listed by the source): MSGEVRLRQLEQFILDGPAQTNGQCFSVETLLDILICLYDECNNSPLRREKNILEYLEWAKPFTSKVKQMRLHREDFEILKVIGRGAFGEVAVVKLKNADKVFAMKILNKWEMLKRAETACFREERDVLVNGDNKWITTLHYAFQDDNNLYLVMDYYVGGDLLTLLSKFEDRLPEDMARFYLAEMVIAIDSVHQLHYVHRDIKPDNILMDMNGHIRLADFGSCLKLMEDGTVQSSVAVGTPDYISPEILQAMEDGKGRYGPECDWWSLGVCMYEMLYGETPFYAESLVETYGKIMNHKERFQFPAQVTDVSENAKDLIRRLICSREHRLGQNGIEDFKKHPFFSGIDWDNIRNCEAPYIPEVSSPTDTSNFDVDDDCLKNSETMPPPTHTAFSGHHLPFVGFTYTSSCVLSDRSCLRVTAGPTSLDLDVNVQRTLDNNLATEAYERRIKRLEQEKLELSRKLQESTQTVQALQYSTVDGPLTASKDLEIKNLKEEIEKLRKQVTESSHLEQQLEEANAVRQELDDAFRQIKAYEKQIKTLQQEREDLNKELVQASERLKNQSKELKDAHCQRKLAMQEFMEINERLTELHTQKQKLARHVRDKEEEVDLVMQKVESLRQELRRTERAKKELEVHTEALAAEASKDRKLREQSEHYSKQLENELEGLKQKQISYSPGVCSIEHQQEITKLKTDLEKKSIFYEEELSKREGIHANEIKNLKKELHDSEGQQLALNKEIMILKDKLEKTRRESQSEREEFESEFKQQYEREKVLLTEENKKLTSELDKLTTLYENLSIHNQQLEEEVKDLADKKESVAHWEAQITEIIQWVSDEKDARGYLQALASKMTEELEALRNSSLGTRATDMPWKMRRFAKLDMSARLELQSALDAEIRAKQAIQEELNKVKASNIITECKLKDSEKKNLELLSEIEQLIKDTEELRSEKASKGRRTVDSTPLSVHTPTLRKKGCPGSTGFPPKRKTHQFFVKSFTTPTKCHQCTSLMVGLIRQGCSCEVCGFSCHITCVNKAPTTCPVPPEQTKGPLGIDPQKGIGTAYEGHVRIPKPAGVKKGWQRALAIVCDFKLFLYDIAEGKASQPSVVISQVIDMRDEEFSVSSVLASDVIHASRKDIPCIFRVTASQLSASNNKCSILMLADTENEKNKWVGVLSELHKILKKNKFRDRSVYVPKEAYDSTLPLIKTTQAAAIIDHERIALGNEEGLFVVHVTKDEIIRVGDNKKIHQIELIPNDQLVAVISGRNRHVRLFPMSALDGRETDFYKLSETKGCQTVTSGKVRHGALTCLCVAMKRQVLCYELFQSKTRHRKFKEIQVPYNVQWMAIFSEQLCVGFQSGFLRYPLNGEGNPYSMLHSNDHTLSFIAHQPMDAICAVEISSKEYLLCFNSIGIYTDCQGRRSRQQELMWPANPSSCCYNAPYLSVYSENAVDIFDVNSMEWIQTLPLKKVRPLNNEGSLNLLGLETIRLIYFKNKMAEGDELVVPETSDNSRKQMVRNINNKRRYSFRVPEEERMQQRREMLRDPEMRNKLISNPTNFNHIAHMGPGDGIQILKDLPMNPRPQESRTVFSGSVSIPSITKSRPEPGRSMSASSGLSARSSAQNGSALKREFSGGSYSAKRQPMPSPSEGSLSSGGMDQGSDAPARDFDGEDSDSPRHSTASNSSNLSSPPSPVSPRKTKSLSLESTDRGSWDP
Ribosomal protein S6 kinase alpha-5 (Homo sapiens), sequence (O75582 whole entry, looked up): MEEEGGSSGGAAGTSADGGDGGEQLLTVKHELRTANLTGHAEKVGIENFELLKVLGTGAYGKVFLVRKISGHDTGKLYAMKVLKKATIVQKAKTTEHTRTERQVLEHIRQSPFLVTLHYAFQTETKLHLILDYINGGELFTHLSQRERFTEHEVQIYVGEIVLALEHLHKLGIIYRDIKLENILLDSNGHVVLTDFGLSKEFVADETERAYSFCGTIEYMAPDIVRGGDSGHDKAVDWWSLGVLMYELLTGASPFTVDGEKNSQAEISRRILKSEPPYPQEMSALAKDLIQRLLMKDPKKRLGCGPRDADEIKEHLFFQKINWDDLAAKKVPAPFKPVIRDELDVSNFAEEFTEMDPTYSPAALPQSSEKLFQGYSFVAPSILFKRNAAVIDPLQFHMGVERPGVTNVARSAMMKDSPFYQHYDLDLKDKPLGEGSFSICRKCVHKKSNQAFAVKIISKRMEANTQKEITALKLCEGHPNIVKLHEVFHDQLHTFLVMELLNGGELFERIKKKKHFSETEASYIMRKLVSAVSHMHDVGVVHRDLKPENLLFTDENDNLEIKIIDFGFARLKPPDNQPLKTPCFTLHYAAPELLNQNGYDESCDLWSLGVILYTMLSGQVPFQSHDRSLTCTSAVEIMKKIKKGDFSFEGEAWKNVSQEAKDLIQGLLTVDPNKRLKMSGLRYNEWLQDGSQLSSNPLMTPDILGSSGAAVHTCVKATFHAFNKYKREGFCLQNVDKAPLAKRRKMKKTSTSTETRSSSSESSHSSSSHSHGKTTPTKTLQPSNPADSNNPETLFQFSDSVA
LIM domain kinase 1 (Homo sapiens), sequence (P53667 whole entry, looked up, the tested form may be a part): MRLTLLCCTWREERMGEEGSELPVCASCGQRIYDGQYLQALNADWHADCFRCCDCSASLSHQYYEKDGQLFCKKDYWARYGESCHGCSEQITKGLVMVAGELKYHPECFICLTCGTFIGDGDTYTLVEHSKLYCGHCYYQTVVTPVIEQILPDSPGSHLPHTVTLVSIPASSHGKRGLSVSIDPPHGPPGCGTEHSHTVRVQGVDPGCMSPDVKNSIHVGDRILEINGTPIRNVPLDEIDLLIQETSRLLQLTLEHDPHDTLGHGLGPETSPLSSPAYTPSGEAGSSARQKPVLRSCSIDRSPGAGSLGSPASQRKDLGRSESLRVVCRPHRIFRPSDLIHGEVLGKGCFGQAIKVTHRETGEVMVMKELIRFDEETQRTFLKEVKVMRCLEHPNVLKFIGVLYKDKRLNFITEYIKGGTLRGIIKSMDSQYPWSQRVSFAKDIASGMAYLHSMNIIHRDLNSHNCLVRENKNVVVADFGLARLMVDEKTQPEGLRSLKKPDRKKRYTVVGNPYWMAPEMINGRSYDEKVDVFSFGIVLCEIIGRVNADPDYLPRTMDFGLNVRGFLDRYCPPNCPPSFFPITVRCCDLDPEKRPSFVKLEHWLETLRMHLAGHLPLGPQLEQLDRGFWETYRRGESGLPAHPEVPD
Death-associated protein kinase 2 (Homo sapiens), sequence (Q9UIK4 whole entry, looked up, the tested form may be a part): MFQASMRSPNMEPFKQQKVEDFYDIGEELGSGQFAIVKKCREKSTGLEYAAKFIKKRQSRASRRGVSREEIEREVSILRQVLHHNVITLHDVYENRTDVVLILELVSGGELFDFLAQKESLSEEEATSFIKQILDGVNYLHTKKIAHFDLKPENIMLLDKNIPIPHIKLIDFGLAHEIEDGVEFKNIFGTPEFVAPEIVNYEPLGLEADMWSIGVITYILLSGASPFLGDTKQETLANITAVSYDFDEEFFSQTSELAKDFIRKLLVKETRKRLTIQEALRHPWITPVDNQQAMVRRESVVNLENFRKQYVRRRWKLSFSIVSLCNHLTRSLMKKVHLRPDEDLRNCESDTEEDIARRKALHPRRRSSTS
5'-AMP-activated protein kinase catalytic subunit alpha-1 (Homo sapiens), sequence (Q13131 whole entry, looked up): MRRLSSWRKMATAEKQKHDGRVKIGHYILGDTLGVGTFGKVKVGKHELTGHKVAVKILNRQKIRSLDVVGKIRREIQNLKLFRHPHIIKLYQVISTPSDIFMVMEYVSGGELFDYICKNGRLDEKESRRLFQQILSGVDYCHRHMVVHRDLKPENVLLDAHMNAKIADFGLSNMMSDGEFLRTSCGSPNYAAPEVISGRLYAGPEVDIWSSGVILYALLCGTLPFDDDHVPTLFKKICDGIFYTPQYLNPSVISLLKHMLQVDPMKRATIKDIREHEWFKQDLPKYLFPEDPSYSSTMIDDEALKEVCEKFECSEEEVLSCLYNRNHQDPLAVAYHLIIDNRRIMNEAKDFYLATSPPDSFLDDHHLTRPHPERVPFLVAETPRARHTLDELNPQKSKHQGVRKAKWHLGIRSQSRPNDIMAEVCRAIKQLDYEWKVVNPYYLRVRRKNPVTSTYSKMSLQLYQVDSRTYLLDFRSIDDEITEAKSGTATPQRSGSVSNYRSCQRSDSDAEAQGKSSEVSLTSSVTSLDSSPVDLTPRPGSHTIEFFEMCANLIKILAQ

Row | Structure (SMILES) | residual activity [1] [%] | residual activity [2] [%] | residual activity [3] [%] | residual activity [4] [%] | residual activity [5] [%] | residual activity [6] [%] | residual activity [7] [%] | residual activity [8] [%] | residual activity [9] [%] | residual activity [10] [%] | residual activity [11] [%] | residual activity [12] [%] | residual activity [13] [%]
1 | COc1cc2c(Oc3ccc(-c4nc5ccccc5s4)cc3)ncnc2cc1OCCCN1CCN(C)CC1 | 104 | 61 | 89 | 79 | 89 | 130 | 93 | 85 | 21 | 146 | 112 | 156 | 2
2 | COc1cc2c(Oc3ccc(-c4nc5ccccc5s4)cc3)ncnc2cc1OCCCN1CCCC1 | 111 | 73 | 99 | 92 | 96 | 122 | 91 | 101 | 20 | 140 | 104 | 147 | 223
3 | COc1cc2c(Oc3ccc(-c4nc5ccccc5s4)cc3F)ncnc2cc1OCCCN1CCN(C)CC1 | 132 | 57 | 82 | 90 | 95 | 135 | 91 | 95 | 23 | 151 | 86 | 97 | 257
